Several values for one entry are separate records, joined by “and”; a condition that tells them apart may be missing. Equal entries are not always repeated. Inconclusive results and toxic doses are left out. Rule for the calls: active = survival T/C of 150% or more; inactive = T/C below 125% in these data.
System: CD2F1 mice, L1210 leukemia ip, survival T/C
Test: NCI In Vivo Anticancer Drug Screen. Data for tumor model L1210 Leukemia (intraperitoneal) in CD2F1 (CDF1) mice
Conditions: higher = longer survival
Method in brief: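 Vehicle-treated tumor-bearing mice served as controls (C) for compound-treated mice (T). Reported figure is T divided by C.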

[1] = endpoint: mean survival time, dose: 100.0 mg/kg/injection, schedule: Q01DX001 (ip), vehicle: saline with Tween-80
[2] = endpoint: mean survival time, dose: 200.0 mg/kg/injection, schedule: Q01DX001 (ip), vehicle: saline with Tween-80
[3] = endpoint: mean survival time, dose: 400.0 mg/kg/injection, schedule: Q01DX001 (ip), vehicle: saline with Tween-80
[4] = endpoint: mean survival time, dose: 100.0 mg/kg/injection, schedule: Q04DX003 (ip), vehicle: saline with Tween-80
[5] = endpoint: mean survival time, dose: 200.0 mg/kg/injection, schedule: Q04DX003 (ip), vehicle: saline with Tween-80
[6] = endpoint: mean survival time, dose: 400.0 mg/kg/injection, schedule: Q04DX003 (ip), vehicle: saline with Tween-80

Measured: T/C

CCc1nc(N)nc(N)c1-c1ccc(Cl)c(N=[N+]=[N-])c1
inactive: endpoint: median survival time, dose: 12.5 mg/kg/injection, schedule: Q01DX009 (ip), vehicle: distilled water + Tween-80 100 % of control | endpoint: median survival time, dose: 25.0 mg/kg/injection, schedule: Q01DX009 (ip), vehicle: distilled water + Tween-80 101 % of control and 102 % of control | endpoint: median survival time, dose: 50.0 mg/kg/injection, schedule: Q01DX009 (ip), vehicle: distilled water + Tween-80 102 % of control and 107 % of control | endpoint: median survival time, dose: 100.0 mg/kg/injection, schedule: Q01DX009 (ip), vehicle: distilled water + Tween-80 113 % of control (2×) and 96 % of control

C1C2OC2CC2OC12 (stereo not given)
inactive: [1] 97 % of control | [2] 97 % of control | [3] 98 % of control

COc1ccc2cc(OC)c(OC)cc2n1
inactive: [1] 96 % of control | [2] 96 % of control | [3] 98 % of control

CCCCCCCCCCCCSS(=O)(=O)c1ccc(C)cc1
inactive: endpoint: mean survival time, dose: 100.0 mg/kg/injection, schedule: Q04DX003 (ip), vehicle: other 95 % of control | endpoint: mean survival time, dose: 200.0 mg/kg/injection, schedule: Q04DX003 (ip), vehicle: other 95 % of control | endpoint: mean survival time, dose: 400.0 mg/kg/injection, schedule: Q04DX003 (ip), vehicle: other 95 % of control

N#CCCCSc1ccccc1
inactive: endpoint: mean survival time, dose: 100.0 mg/kg/injection, schedule: Q01DX001 (ip), vehicle: saline 96 % of control | endpoint: mean survival time, dose: 200.0 mg/kg/injection, schedule: Q01DX001 (ip), vehicle: saline 106 % of control

O=C(Nc1ccccc1[N+](=O)[O-])c1ccccc1
inactive: [1] 97 % of control | [4] 102 % of control | [2] 100 % of control | [5] 105 % of control | [3] 95 % of control | [6] 97 % of control

CCC(/C=C/C(C)C1CCC2C3CC=C4CC(O)CCC4(C)C3CCC12C)C(C)C (stereo not given) (tested in a mixture with another compound)
inactive: endpoint: mean survival time, dose: 12.5 mg/kg/injection, schedule: Q01DX001 (ip), vehicle: water 97 % of control | endpoint: mean survival time, dose: 12.5 mg/kg/injection, schedule: Q01DX009 (ip), vehicle: water 100 % of control | endpoint: mean survival time, dose: 25.0 mg/kg/injection, schedule: Q01DX001 (ip), vehicle: water 97 % of control | endpoint: mean survival time, dose: 25.0 mg/kg/injection, schedule: Q01DX009 (ip), vehicle: other 94 % of control | endpoint: mean survival time, dose: 25.0 mg/kg/injection, schedule: Q01DX009 (ip), vehicle: water 103 % of control | endpoint: mean survival time, dose: 50.0 mg/kg/injection, schedule: Q01DX001 (ip), vehicle: water 102 % of control | endpoint: mean survival time, dose: 50.0 mg/kg/injection, schedule: Q01DX009 (ip), vehicle: other 91 % of control | endpoint: mean survival time, dose: 50.0 mg/kg/injection, schedule: Q01DX009 (ip), vehicle: water 96 % of control | endpoint: mean survival time, dose: 100.0 mg/kg/injection, schedule: Q01DX009 (ip), vehicle: saline with Tween-80 94 % of control | endpoint: mean survival time, dose: 200.0 mg/kg/injection, schedule: Q01DX009 (ip), vehicle: saline with Tween-80 89 % of control

Cc1ccc(CCOS(=O)(=O)c2ccc(C)cc2)cc1
inactive: [1] 97 % of control | [2] 95 % of control | [3] 95 % of control

COc1cc(NCC(C)(O)CN2CCCC(C)C2C)c2ncccc2c1 (stereo not given)
inactive: endpoint: mean survival time, dose: 3.12 mg/kg/injection, schedule: Q01DX009 (ip), vehicle: saline 101 % of control | endpoint: mean survival time, dose: 6.25 mg/kg/injection, schedule: Q01DX009 (ip), vehicle: saline 101 % of control | endpoint: mean survival time, dose: 12.5 mg/kg/injection, schedule: Q01DX009 (ip), vehicle: saline 101 % of control | endpoint: mean survival time, dose: 25.0 mg/kg/injection, schedule: Q01DX009 (ip), vehicle: saline 103 % of control | endpoint: mean survival time, dose: 50.0 mg/kg/injection, schedule: Q01DX009 (ip), vehicle: saline 102 % of control

O=C1C=CC(=O)c2ccccc21
inactive: endpoint: mean survival time, dose: 1.0 mg/kg/injection, schedule: Q01DX009 (ip), vehicle: Klucel (hydroxypropylcellulose) (HPC) 94 % of control | endpoint: mean survival time, dose: 1.25 mg/kg/injection, schedule: Q04DX003 (ip), vehicle: saline with Tween-80 104 % of control | endpoint: mean survival time, dose: 2.0 mg/kg/injection, schedule: Q01DX009 (ip), vehicle: Klucel (hydroxypropylcellulose) (HPC) 102 % of control | endpoint: mean survival time, dose: 2.5 mg/kg/injection, schedule: Q04DX003 (ip), vehicle: saline with Tween-80 95 % of control | endpoint: mean survival time, dose: 4.0 mg/kg/injection, schedule: Q01DX009 (ip), vehicle: Klucel (hydroxypropylcellulose) (HPC) 102 % of control

Cc1cc(=O)c2ccccc2n1C
inactive: endpoint: mean survival time, dose: 5.0 mg/kg/injection, schedule: Q04DX002 (ip), vehicle: saline 98 % of control | endpoint: mean survival time, dose: 10.0 mg/kg/injection, schedule: Q04DX002 (ip), vehicle: saline 98 % of control | endpoint: mean survival time, dose: 20.0 mg/kg/injection, schedule: Q04DX002 (ip), vehicle: saline 98 % of control

CC(CC(C)(C)C)O[Si](C)C1(C)CCCCC1 (stereo not given)
inactive: [4] 102 % of control | [5] 112 % of control | [6] 106 % of control

Cc1ccc(N)cc1 (tested in a mixture with another compound)
inactive: endpoint: mean survival time, dose: 12.5 mg/kg/injection, schedule: Q04DX003 (ip), vehicle: saline with Tween-80 97 % of control | endpoint: mean survival time, dose: 25.0 mg/kg/injection, schedule: Q04DX003 (ip), vehicle: saline with Tween-80 101 % of control and 103 % of control | endpoint: mean survival time, dose: 50.0 mg/kg/injection, schedule: Q04DX003 (ip), vehicle: saline with Tween-80 107 % of control | [4] 110 % of control and 103 % of control and 107 % of control | [5] 105 % of control and 117 % of control | [6] 102 % of control

CC(=O)C1=CCC2[C@H]3CC=C4C[C@H](O)CC[C@@]4(C)C3CC[C@@]12C (stereo not given in full)
inactive: endpoint: mean survival time, dose: 100.0 mg/kg/injection, schedule: Q04DX003 (ip), vehicle: Klucel (hydroxypropylcellulose) (HPC) 103 % of control | endpoint: mean survival time, dose: 200.0 mg/kg/injection, schedule: Q04DX003 (ip), vehicle: Klucel (hydroxypropylcellulose) (HPC) 103 % of control | endpoint: mean survival time, dose: 400.0 mg/kg/injection, schedule: Q04DX003 (ip), vehicle: Klucel (hydroxypropylcellulose) (HPC) 103 % of control

CC(C)(C)C1CCC(O)(CSc2ccccc2)CC1 (stereo not given)
inactive: [4] 97 % of control | [5] 92 % of control | [6] 92 % of control

COc1ccc(C(=O)CN(C)S(=O)(=O)c2ccc(C)cc2)cc1
inactive: endpoint: mean survival time, dose: 100.0 mg/kg/injection, schedule: Q04DX002 (ip), vehicle: saline with Tween-80 97 % of control | endpoint: mean survival time, dose: 200.0 mg/kg/injection, schedule: Q04DX002 (ip), vehicle: saline with Tween-80 97 % of control | endpoint: mean survival time, dose: 400.0 mg/kg/injection, schedule: Q04DX002 (ip), vehicle: saline with Tween-80 94 % of control
